According to ChEMBL document CHEMBL1123332, “Synthesis and anti-herpes-virus activity of acyclic 2'-deoxyguanosine analogues related to 9-[(1,3-dihydroxy-2-propoxy)methyl]guanine” (1986):
pIC50: −log10 of the molar value.

What was measured:
[1] = Antiviral activity determined against herpes simplex type 1 (F strain) by plaque reduction in Vero cells; assay type: functional; conditions: Chlorocebus sabaeus, read-out: ID50 (the source's name)
[2] = system: Thymidine kinase (Human alphaherpesvirus 1); assay: Phosphorylation of compound by purified HSV-1 (F strain) thymidine kinase; set-up: concentration or dose not given beside the values
[3] = system: Mus musculus; assay: Mean survival time of HSV-2 encephalitis infectuous mice upon subcutaneous treatment with the compound at a dose of 20 mg/kg; assay type: functional
[4] = system: Mus musculus; assay: Effect of subcutaneous treatment with the compound on HSV-2 encephalitis infection in mice at a dose of 20 mg/kg; 3/10; assay type: functional
[5] = system: Mus musculus; assay: Effect of subcutaneous treatment with the compound on HSV-2 encephalitis infection in mice at a dose of 20 mg/kg; 10/16; assay type: functional
[6] = system: Mus musculus; assay: Effect of subcutaneous treatment with the compound on HSV-2 encephalitis infection in mice at a dose of 20 mg/kg; 2/10; assay type: functional

| pIC50 [1] | Activity [2] [%] | SMILES | MST [3] [days] | Survivors [4] | Survivors [5] | Survivors [6] |
| --- | --- | --- | --- | --- | --- | --- |
| < 4.00 | 100 | CC(CO)(CO)COCn1cnc2c(O)nc(N)nc21 | – | – | – | – |
| < 4.00 | 25 | [N-]=[N+]=NC[C@@H](CO)OCn1cnc2c(O)nc(N)nc21 | – | – | – | – |
| 4.40 | 21 | Nc1nc(O)c2ncn(CO[C@H](CO)COC3CCCC3)c2n1 | – | – | – | – |
| < 4.00 | – | Nc1nc2c(ncn2CC(CO)CO)c(=O)[nH]1 [TIVICICLOVIR] | – | – | – | – |
| 4.15 | 32 | COC[C@@H](CO)OCn1cnc2c(O)nc(N)nc21 | – | – | – | – |
| < 4.00 | 35 | Nc1nc(O)c2ncn(CCOC(CO)CO)c2n1 | – | – | – | – |
| 5.64 | 28 | C[C@@H](CO)OCn1cnc2c(O)nc(N)nc21 | – | – | – | – |
| 4.02 | 111 | Nc1nc(O)c2ncn(CO[C@H](CO)CCO)c2n1 | – | – | – | – |
| 4.49 | < 10 | NC[C@@H](CO)OCn1cnc2c(O)nc(N)nc21 | – | – | – | – |
| 4.22 | 33 | Nc1nc(O)c2ncn(CO[C@H](CO)CCl)c2n1 | – | – | – | – |

| SMILES | pIC50 [1] | Activity [2] [%] | MST [3] [days] | Survivors [4] | Survivors [5] | Survivors [6] |
| --- | --- | --- | --- | --- | --- | --- |
| Nc1nc(O)c2ncn(COCCOC(CO)CO)c2n1 | < 5.15 | 23 | 10.3 | 3 | – | – |
| Nc1nc2c(ncn2COC(CO)CO)c(=O)[nH]1 [GANCICLOVIR] | 6.70 | – | 13.5 | – | 10 | – |
| Nc1nc2c(ncn2COCCO)c(=O)[nH]1 [ACYCLOVIR] | 6.30 | – | – | – | – | – |
| Nc1nc(O)c2ncn(CO[C@H](CO)CF)c2n1 | < 5.15 | 67 | 8.5 | – | – | 2 |
